Measured values: patent publication US20220098265A1 (MEDIMMUNE LIMITED, priority 2012, published 2022)
Like-named read-outs stand apart in the source and are kept apart here. Blank lines part the entries; values can stand above or below the molecule they belong to. Numbered stars: 1 amine (or outer) side, 2 acyl side, 3 side chain; on linkers, the order of the positions; unused ones are H or OH. Side chains are listed from the residue outwards. Peptide text beside a SMILES is read from it. * marks the point of attachment. γGlu = O=C(O)[C@H](CCC(=O)[*:2])N[*:1]; Palmitoyl = CCCCCCCCCCCCCCCC(=O)*

How the values were obtained:
human serum albumin = human serum albumin (Homo sapiens, UniProt P02768); assay: Fraction of free peptide at plasma concentration of albumin, calculated from variation in cAMP generation with HSA concentration; format: in vitro ADME; set-up: purchased Sigma Aldrich
Chain of human serum albumin (P02768 25-609): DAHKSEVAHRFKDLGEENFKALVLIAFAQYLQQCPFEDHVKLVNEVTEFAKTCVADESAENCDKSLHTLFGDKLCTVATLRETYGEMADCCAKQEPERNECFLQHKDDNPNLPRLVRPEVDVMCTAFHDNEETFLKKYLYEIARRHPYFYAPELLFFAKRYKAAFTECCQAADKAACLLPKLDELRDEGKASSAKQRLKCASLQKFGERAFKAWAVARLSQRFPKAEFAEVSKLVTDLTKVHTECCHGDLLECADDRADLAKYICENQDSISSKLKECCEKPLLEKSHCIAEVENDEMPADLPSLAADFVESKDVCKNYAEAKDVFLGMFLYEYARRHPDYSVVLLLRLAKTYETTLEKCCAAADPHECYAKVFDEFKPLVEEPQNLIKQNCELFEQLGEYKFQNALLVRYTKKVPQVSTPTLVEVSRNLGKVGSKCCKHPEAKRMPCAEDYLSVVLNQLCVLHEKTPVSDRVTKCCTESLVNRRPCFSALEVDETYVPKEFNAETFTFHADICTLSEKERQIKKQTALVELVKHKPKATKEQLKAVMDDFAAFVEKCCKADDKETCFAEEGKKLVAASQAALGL

DIO mice = assay: Diet induced obesity (DIO) mouse model, study B; format: in vivo; conditions: for BW day 14 (% change of vehicle mean) / HOMA / Hepatic TG (g TG/100g tissue) / Plasma NEFA / Plasma TG: day 14; for Glucose / Insulin: day 14, 4-hour fasting
Description: The body weight of the animals was monitored daily throughout the dosing period At day 14, blood samples for the measurement of plasma glucose and insulin from conscious mice were obtained after a 4-hour fasting period. Mice were then anaesthetized using isofluorane and terminal blood was collected from the capillary bed behind the eye. The following parameters were measured: blood chemistry measurements of triglycerides, total cholesterol, non-esterified fatty acids (NEFA), beta-hydroxybutyrate and fibroblast growth factor 21 (FGF21) (Table 16 and Table 17 below).

[1] = Stability testing of peptides in human plasma; format: in vitro ADME
Description: Stability testing of peptides in plasma. The stability in plasma of the peptides […], […], […] and […] was determined as follows. […] The frozen blank plasma from human, rat and mouse had been thawed and heated to a temperature of 37° C. before addition of the stock solution. The spiked plasma samples were gently mixed and allowed to equilibrate for about 5 minutes before start of experiment. The plasma samples were incubated for 48 hours in a Galaxy® CO2 incubator at 37° C. […] The samples were stored at -70° C. until analysis. Plasma samples were assayed as follows. The 30 μL plasma samples were protein precipitated with […] of cold ethanol in a 96-well low bind plate (Eppendorf Protein LoBind). After mixing and centrifugation 100 μl the supernatant was transferred to a new plate and 1 μl was injected onto an analytical column. The analysis was performed using a μLC-system ([…]) coupled to a medium high resolution mass spectrometer (Perkin Elmer PenTOF) with positive electrospray ionisation. […] Flow: 0.1 ml/min using a slow reversed phase gradient. […] Products with +1 mass may arise from deamidation at amide groups of glutamine or at the C-terminus. Cleavage products arise from the action of the protease DPP IV in plasma. Both the degradation of the peptides and formation of peptide products were reported in percentage of the initial peptide concentration. Peaks were integrated and % remaining peptide was calculated: […] Levels of deamidation and DPP IV cleavage were low for […] and […].

Human GIPr = target: T1, Human GIPr (Homo sapiens, UniProt P48546); assay: cAMP activity assay 1 in assay medium, human GIP receptor; format: cell-based; conditions: additional peptides (Table 4)
T1 construct: expressed in transfected cells
T1 sequence (P48546 22-466): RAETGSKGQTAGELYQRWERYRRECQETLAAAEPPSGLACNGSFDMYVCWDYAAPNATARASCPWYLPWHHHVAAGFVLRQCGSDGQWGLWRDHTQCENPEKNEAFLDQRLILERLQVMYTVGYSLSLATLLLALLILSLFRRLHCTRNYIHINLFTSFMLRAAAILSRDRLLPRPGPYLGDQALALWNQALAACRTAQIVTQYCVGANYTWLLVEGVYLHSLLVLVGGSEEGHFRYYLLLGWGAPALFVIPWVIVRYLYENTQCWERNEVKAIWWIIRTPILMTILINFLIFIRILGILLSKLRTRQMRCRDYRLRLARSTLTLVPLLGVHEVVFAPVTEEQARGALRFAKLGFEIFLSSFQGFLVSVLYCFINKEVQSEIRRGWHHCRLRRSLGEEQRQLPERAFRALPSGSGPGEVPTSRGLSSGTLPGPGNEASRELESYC

Human GLP1R = Human GLP1R (Homo sapiens, UniProt P43220); conditions: read-out: hGLP1R EC50; assay 1; additional peptides (Table 4)
Chain of Human GLP1R (P43220 24-463): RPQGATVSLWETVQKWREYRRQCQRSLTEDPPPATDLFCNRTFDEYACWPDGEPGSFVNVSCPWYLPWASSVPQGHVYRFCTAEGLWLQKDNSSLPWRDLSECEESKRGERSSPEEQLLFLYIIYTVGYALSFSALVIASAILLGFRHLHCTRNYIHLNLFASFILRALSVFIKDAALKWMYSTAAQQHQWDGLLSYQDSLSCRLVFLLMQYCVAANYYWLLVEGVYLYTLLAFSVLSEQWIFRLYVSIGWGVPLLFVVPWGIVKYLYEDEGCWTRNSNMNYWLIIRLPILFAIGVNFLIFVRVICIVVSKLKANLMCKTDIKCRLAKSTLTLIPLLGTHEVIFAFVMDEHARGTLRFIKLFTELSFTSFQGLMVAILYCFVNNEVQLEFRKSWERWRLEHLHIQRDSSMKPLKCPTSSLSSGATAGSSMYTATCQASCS

Human GlucR = Human GlucR (Homo sapiens, UniProt P47871); conditions: read-out: hGlucR EC50; assay 1; additional peptides (Table 4)
Chain of Human GlucR (P47871 26-477): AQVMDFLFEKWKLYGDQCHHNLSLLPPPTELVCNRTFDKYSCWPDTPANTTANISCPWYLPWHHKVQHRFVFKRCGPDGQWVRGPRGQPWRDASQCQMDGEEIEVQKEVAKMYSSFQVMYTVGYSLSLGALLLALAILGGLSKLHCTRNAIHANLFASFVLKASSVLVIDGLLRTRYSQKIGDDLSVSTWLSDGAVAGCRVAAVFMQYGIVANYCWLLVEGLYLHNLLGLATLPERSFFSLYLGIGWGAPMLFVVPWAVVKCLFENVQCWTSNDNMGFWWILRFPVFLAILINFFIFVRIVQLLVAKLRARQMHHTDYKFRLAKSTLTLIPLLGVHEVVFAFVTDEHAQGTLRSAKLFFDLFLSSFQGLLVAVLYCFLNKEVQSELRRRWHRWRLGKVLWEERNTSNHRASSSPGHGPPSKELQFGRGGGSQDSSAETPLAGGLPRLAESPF

[2] = frozen blank plasma from rat; conditions: 37° C, up to 48 hours
human GLP-1 receptor [3] = target: T2, human GLP-1 receptor (human, UniProt P43220 24-463); assay: cell-based or functional assay
mouse glucagon receptor = mouse glucagon receptor (mouse, UniProt Q61606 27-485); assay: cell-based or functional assay
Chain of mouse glucagon receptor (Q61606 27-485): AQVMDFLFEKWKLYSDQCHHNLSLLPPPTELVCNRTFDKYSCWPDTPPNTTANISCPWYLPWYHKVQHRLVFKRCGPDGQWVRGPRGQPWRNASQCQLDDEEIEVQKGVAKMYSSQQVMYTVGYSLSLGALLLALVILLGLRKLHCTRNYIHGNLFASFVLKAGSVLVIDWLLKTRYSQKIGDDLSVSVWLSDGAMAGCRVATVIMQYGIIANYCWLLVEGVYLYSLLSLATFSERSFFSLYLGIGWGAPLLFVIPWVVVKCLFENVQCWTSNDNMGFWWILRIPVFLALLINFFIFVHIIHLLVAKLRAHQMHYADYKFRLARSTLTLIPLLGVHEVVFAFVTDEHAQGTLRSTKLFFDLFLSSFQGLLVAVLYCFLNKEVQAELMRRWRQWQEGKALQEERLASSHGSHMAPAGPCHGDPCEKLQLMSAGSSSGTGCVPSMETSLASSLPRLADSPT

mouse GLP-1 receptor = target: T3, mouse GLP-1 receptor (mouse, UniProt O35659 22-463); assay: cell-based or functional assay
T3 sequence (looked up): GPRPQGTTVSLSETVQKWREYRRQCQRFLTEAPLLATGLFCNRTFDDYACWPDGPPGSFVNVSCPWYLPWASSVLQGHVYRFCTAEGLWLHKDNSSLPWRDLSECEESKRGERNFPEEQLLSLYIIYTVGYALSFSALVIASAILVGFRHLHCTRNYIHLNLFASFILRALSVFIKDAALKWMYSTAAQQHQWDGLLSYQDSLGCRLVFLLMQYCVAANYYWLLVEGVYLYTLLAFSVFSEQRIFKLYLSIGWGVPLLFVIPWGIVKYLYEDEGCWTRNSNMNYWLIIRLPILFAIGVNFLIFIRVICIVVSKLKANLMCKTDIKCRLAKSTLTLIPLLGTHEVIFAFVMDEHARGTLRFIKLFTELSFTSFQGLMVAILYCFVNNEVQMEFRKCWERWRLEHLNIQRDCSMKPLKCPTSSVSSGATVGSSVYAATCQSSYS

human glucagon receptor [4] = target: T4, human glucagon receptor (human, UniProt P47871 26-477); assay: cell-based or functional assay
T4 sequence (P47871 26-477): as the sequence (P47871 26-477) above

human GLP-1 receptor [5] = target: T2, human GLP-1 receptor; assay: cell-based or functional assay; remark: listed apart in the source
[6] = target: T5, human glucose-dependent insulinotropic peptide (gastric inhibitory polypeptide) receptor (human, UniProt P48546 22-466); assay: cell-based or functional assay
T5 sequence (looked up): T1 sequence (P48546 22-466)

human glucagon receptor [7] = target: T4, human glucagon receptor; assay: cell-based or functional assay; remark: listed apart in the source
human GLP-1 receptor [8] = target: T2, human GLP-1 receptor; assay: cell-based or functional assay; remark: listed apart in the source
[9] = target: T5, human glucose-dependent insulinotropic …; assay: cell-based or functional assay; remark: listed apart in the source
human glucagon receptor [10] = target: T4, human glucagon receptor; assay: cell-based or functional assay; remark: listed apart in the source

Molecule: CCCCCCCCCCCCCCCC(=O)N[C@@H](CCC(=O)NCCCC[C@H](NC(=O)[C@H](CC(=O)O)NC(=O)[C@H](CO)NC(=O)[C@@H](NC(=O)[C@H](Cc1ccccc1)NC(=O)[C@@H](NC(=O)CNC(=O)[C@H](CCC(N)=O)NC(=O)[C@H](CO)NC(=O)[C@@H](N)Cc1c[nH]cn1)[C@@H](C)O)[C@@H](C)O)C(=O)N[C@@H](CO)C(=O)N[C@@H](CCC(=O)O)C(=O)N[C@@H](Cc1ccc(O)cc1)C(=O)N[C@@H](CC(C)C)C(=O)N[C@@H](CC(=O)O)C(=O)N[C@@H](CO)C(=O)N[C@@H](CCC(=O)O)C(=O)N[C@@H](CCCNC(=N)N)C(=O)N[C@@H](C)C(=O)N[C@@H](CCCNC(=N)N)C(=O)N[C@@H](CC(=O)O)C(=O)N[C@@H](Cc1ccccc1)C(=O)N[C@H](C(=O)N[C@@H](C)C(=O)N[C@@H](Cc1c[nH]c2ccccc12)C(=O)N[C@@H](CC(C)C)C(=O)N[C@@H](CCC(=O)O)C(=O)N[C@@H](C)C(=O)NCC(=O)NCC(=O)O)C(C)C)C(=O)O [Peptide G933]
free peptide at 4.4% HSA (human serum albumin): 0.29%
BW day 14 (% change of vehicle mean) (DIO mice; 5 nmol/kg s.c. twice daily for 14 days): −11%
HOMA (DIO mice; 5 nmol/kg s.c. twice daily): 3.31
Hepatic TG (g TG/100g tissue) (DIO mice; 5 nmol/kg s.c. twice daily): 11.3 g TG/100g tissue
Plasma NEFA (DIO mice; 5 nmol/kg s.c. twice daily): 0.28 mM
Plasma TG (DIO mice; 5 nmol/kg s.c. twice daily): 0.19 mM
Glucose (DIO mice; 5 nmol/kg s.c. twice daily): 6.2 mM
Insulin (DIO mice; 5 nmol/kg s.c. twice daily): 0.53 nM
BW day 14 (% change of vehicle mean) (DIO mice; 10 nmol/kg s.c. twice daily for 14 days): −19%
HOMA (DIO mice; 10 nmol/kg s.c. twice daily): 1.98
Hepatic TG (g TG/100g tissue) (DIO mice; 10 nmol/kg s.c. twice daily): 14.7 g TG/100g tissue
Plasma NEFA (DIO mice; 10 nmol/kg s.c. twice daily): 0.27 mM
Plasma TG (DIO mice; 10 nmol/kg s.c. twice daily): 0.16 mM
Glucose (DIO mice; 10 nmol/kg s.c. twice daily): 7.2 mM
Insulin (DIO mice; 10 nmol/kg s.c. twice daily): 0.27 nM
effect on body weight over the 14 day dosing period (DIO mice; study B, FIGS. 5-8): dose dependent and continuous weight loss
% DPP cleaved product/+1 DPP cleaved product [1]: <1%
solubility (physchem; pH 7): ≥ 10000 µg/mL
solubility (physchem; pH 7.2): ≥ 5000 µg/mL

Molecule: HSQGTFTSDXSRYLDSRSARDFVAWLEAGG-amide X10 = K(gE-palm)
fragment found [2]: DPP IV-cleavage product

Molecule: HGQGTFTSDYSKYLDSKRAQDFVQWLVAGG (X17 = K(gE-palm); C-terminal amide) [G380]
cAMP EC50 (assay 2, 4.4% human serum albumin) (human GLP-1 receptor [3]): 6.54 nM
cAMP EC50 (assay 2, 3.2% mouse serum albumin) (mouse glucagon receptor): 576 nM
cAMP EC50 (assay 2, 3.2% mouse serum albumin) (mouse GLP-1 receptor): 15 nM
cAMP EC50 (assay 2, 4.4% human serum albumin) (human glucagon receptor [4]): 53.6 nM
cAMP EC50 (assay 1) (human GLP-1 receptor [5]): 0.1 nM
cAMP EC50 (assay 1) [6]: 609 nM
cAMP EC50 (assay 1) (human glucagon receptor [7]): 0.362 nM
cAMP EC50 (assay 1) (human GLP-1 receptor [8]): 0.077 nM
cAMP EC50 (assay 1) [9]: 130 nM
cAMP EC50 (assay 1) (human glucagon receptor [10]): 0.217 nM

Now from value to molecule:

EC50 (Human GIPr; g688, read-out: hGIPR EC50): 112 nM
Molecule: CCCCCCCCCCCCCCCC(=O)N[C@@H](CCC(=O)NCCCC[C@H](NC(=O)[C@H](CO)NC(=O)[C@H](CC(=O)O)NC(=O)[C@H](CC(C)C)NC(=O)[C@H](Cc1ccc(O)cc1)NC(=O)[C@H](CCCCN)NC(=O)[C@H](CO)NC(=O)[C@H](Cc1ccc(O)cc1)NC(=O)[C@H](CC(=O)O)NC(=O)[C@H](CO)NC(=O)[C@@H](NC(=O)[C@H](Cc1ccccc1)NC(=O)[C@@H](NC(=O)CNC(=O)[C@H](CCC(N)=O)NC(=O)[C@H](CO)NC(=O)[C@@H](N)Cc1c[nH]cn1)[C@@H](C)O)[C@@H](C)O)C(=O)N[C@@H](CCCNC(=N)N)C(=O)N[C@@H](C)C(=O)N[C@@H](CCC(=O)O)C(=O)N[C@@H](CC(=O)O)C(=O)N[C@@H](Cc1ccccc1)C(=O)N[C@H](C(=O)N[C@@H](CCC(N)=O)C(=O)N[C@@H](Cc1c[nH]c2ccccc12)C(=O)N[C@@H](CC(C)C)C(=O)N[C@H](C(=O)N[C@@H](C)C(=O)NCC(=O)NCC(N)=O)C(C)C)C(C)C)C(=O)O [g599]

EC50 (Human GLP1R): 0.0212 nM
EC50 (Human GIPr; read-out: hGIPR EC50): 89.6 nM
EC50 (Human GlucR): 0.00219 nM
Molecule: CCCCCCCCCCCCCCCC(=O)N[C@@H](CCC(=O)NCCCC[C@H](NC(=O)[C@H](Cc1ccc(O)cc1)NC(=O)[C@H](CCCNC(=N)N)NC(=O)[C@H](CO)NC(=O)[C@H](Cc1ccc(O)cc1)NC(=O)[C@H](CC(=O)O)NC(=O)[C@H](CO)NC(=O)[C@@H](NC(=O)[C@H](Cc1ccccc1)NC(=O)[C@@H](NC(=O)CNC(=O)[C@H](CCC(N)=O)NC(=O)[C@H](CO)NC(=O)[C@@H](N)Cc1c[nH]cn1)[C@@H](C)O)[C@@H](C)O)C(=O)N[C@@H](CC(=O)O)C(=O)N[C@@H](CO)C(=O)N[C@@H](CCCNC(=N)N)C(=O)N[C@@H](CO)C(=O)N[C@@H](C)C(=O)N[C@@H](CCCNC(=N)N)C(=O)N[C@@H](CC(=O)O)C(=O)N[C@@H](Cc1ccccc1)C(=O)N[C@H](C(=O)N[C@@H](C)C(=O)N[C@@H](Cc1c[nH]c2ccccc12)C(=O)N[C@@H](CC(C)C)C(=O)N[C@@H](CCC(=O)O)C(=O)N[C@@H](C)C(N)=O)C(C)C)C(=O)O [g850] (H-HSQGTFTSDYSRYK([γGlu-Palmitoyl])DSRSARDFVAWLEA-NH2)

EC50 (Human GLP1R): 0.0745 nM
Molecule: Listed in the section of parent HSQGTFTSDYSKYLDSRRAQDFVQWLEAGG; no modification printed [g536]
